This is an account of results in patent US5770573A, “CS-1 peptidomimetics, compositions and methods of using the same” (Cytel Corporation, priority 1995, dated 1998).

Square brackets hold non-standard residues; d marks the D form. Peptide text beside a SMILES is read from it. * marks the point of attachment. Morpholide = C1CN(*)CCO1; PhAc = O=C(Cc1ccccc1)*

The target of assay [1] is T1, VLA-4 (Homo sapiens, UniProt P05556+P13612). The assay is described as follows: In vitro binding inhibition of 51Cr-labeled Jurkat cells to solid phase-bound CS-1 compound (SEQ ID NO:1). Format: cell-based. More on the design: inflammatory cells that contain the VLA-4 receptor [Jurkat cells; host or cells: Jurkat (human T lymphoblastic line). The following applies: binding inhibition potency relative to standard compound of SEQ ID NO:3 = 1 (normalized IC50); about one-tenth or less assigned zero. The method in brief: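 51Cr-labeled human Jurkat cells were preincubated with compound 30 min at about 22° C, then allowed to bind to wells coated with CS-1 peptide or CS-1-OVA for 30 min at 37° C. After washing, bound cells were lysed with SDS and counted. IC50 is the concentration halving binding, normalized to SEQ ID NO: 3.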
T1 sequence (P13612 34-1032): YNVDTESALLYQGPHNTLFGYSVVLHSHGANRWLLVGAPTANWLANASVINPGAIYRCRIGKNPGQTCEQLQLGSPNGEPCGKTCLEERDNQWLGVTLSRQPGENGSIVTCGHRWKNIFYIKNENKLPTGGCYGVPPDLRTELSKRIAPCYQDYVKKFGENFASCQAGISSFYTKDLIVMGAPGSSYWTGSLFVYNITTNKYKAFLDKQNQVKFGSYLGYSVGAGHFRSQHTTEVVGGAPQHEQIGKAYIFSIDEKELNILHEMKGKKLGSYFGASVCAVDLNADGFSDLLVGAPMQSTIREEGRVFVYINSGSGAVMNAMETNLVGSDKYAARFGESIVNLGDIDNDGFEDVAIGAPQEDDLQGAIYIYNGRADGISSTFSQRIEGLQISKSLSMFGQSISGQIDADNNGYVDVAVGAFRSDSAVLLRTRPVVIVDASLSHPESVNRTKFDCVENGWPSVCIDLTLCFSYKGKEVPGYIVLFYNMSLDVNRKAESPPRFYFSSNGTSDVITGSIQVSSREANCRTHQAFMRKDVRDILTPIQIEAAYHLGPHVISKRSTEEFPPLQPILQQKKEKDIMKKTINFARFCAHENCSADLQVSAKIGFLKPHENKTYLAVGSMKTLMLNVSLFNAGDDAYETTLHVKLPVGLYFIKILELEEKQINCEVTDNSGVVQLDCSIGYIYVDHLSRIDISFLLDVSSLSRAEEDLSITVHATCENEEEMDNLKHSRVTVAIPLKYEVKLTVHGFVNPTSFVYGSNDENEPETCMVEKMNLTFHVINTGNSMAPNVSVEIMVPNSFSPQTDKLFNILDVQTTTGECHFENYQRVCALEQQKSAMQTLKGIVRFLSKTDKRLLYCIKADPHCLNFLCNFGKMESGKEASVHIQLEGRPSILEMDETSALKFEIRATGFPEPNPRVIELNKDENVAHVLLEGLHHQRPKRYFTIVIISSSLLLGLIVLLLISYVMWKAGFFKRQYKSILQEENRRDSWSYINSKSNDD
T1 sequence (P05556 21-798): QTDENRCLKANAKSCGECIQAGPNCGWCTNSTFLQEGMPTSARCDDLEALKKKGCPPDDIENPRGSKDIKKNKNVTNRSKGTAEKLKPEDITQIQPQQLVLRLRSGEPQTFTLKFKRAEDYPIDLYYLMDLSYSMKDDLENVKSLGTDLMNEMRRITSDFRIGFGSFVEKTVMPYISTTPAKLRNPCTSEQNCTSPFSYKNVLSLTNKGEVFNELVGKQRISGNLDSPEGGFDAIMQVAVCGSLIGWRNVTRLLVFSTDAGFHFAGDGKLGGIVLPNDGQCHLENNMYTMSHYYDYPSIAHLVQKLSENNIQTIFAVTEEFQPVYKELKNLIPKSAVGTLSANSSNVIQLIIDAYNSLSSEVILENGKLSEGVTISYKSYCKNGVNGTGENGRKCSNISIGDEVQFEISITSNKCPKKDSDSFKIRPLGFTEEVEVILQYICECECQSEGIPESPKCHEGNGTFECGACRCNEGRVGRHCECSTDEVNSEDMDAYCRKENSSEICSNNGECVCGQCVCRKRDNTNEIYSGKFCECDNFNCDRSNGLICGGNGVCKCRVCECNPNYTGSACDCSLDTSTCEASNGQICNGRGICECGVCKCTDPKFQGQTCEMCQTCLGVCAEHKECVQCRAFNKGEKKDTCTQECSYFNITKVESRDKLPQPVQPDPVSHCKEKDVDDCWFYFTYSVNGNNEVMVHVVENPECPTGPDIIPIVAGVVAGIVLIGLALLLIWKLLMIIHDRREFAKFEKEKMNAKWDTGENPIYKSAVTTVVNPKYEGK

For assay [2], the system named is delayed-type hypersensitivity murine model. Briefly: Adoptive transfer delayed type hypersensitivity in mice (oxazolone). Format: in vivo, mouse. Conditions: for Percent Inhibition of post-challenge swelling: expanded study, versus vehicle alone, 6 mg/kg/day s.c. pump, 24 hours. As for the experimental part:
An adoptive transfer delayed-type hypersensitivity murine model has been developed using splenic T cells primed to oxazolone. This model is described in Elices et al., Clin. Exp. Rheum., 11 (Suppl. 8):577-580 (1993), whose procedures were followed here.
Thus, BALB/c mice were shaved on the belly and painted (50 μl on the belly and 5 μl on each paw) with three percent oxazolone in acetone/olive oil (4:1) at days zero and 1. At day 5, the mice were sacrificed, their spleens removed, and splenic T cells were obtained via nylon wool columns.
Normal saline or saline containing 25×10^6 /animal of the oxazolone-immune T cells were separately injected into naive mice. The mice were then challenged by painting 10 μl of 2 percent oxazolone onto one ear each. All procedures were carried out under sterile conditions and in endotoxin-free buffers.
Prior to challenge or saline injection, the mice were implanted with pumps that subcutaneously administered normal saline, normal saline containing the compound, Compound ID No. 896.52, N-phenylacetyl-Leu-Asp-Phe-D-Pro-NH2, or normal saline containing a compound with a scrambled sequence continually at 6 mg/kg/day for a 24-hour time period. The swelling diameter at the site of challenge or saline injection was measured with a microcaliper 24 hours thereafter.
An expanded study was carried out as described above except that a scrambled compound control was not used as a control for further inhibitor compounds of Table 1 with larger groups of mice. Statistical analyses were carried out versus injection of vehicle alone.

A further assay has as its system asthmatic rabbits. Briefly: Treatment of asthmatic rabbits (house dust mite antigen challenge). The assay is classed as in vivo, rabbit. As to the method: Six New Zealand white rabbits were immunized with house dust mite antigen from birth through four months of age. Upon immunization, three rabbits received a single nebulizer administration of the inhibitor compound, Compound ID No. 1051.01, N-phenylacetyl-Leu-Asp-Phe-morpholinamide in aqueous 50 percent ethanol as diluent in an amount of 100 mg/kg, and the other three received diluent alone. All of the rabbits were challenged with house dust mite antigen about 15-30 minutes after administration of the compound, with those animals not receiving compound serving as controls.
Once immunized and challenged, the inflammatory state subsides to a basal level within about three weeks. The three animals used as controls were thereafter used as subjects for receipt of an inhibitor compound, and the three rabbits that initially received the compound can serve as controls.
Such a crossover study was done here. Thus, the three initial control rabbits were treated with the above inhibitor compound in the above diluent at a time more than three weeks after the above study, and the three previous recipients of the compound were administered the diluent alone. All six were than challenged again.
Initial pulmonary function, measured by dynamic compliance (Cdyn) and lung resistance (RL) , and bronchoalveolar lavage (BAL) to obtain an effector cell count, here eosinophils, were conducted prior to administration of the compound or diluent for both portions of this crossover study. Similar assays were then taken one-half hourly after challenge for six hours (early phase allergic reaction) and at 24 hours after challenge (late stage allergic reaction) for both portions of this study.
These studies were conducted as described by W. J. Metzger in CRC Handbook of Late Phase Reactions, W. Dorsch, ed., Chapter 35, CRC Press, Boca Raton, Fla. (1990) pages 347-362.
The results of this study for the pulmonary function parameters are shown in FIG. 4A and FIG. 4B, in which data for the challenged, inhibitor compound-treated animals are shown as open circles and data for the challenged, untreated, control animals are shown in blackened circles.

The target of assay [3] is T1, VLA-4. Conditions: cited from earlier work.
In the next assay the test system is Jurkat cells. The assay is described as follows: Binding of Jurkat cells to frozen human RA synovial sections. The assay is classed as cell-based. The following applies: 500 μg/ml. As to the method:
Binding studies were carried out using the Jurkat T cell line and frozen RA synovial sections. […] Stimulated MOLT-4 cells behaved similarly.
The absolute value of that IC50 value is about 0.5 μmolar.

Another assay relates to immune T cells. The following applies: about 50 μg/ml admixed with immune T cells; cited from earlier work.
The next assay deals with EAE in SJL/J mice. Briefly: Experimental autoimmune encephalomyelitis in mice. The assay is classed as in vivo. The following applies: 1 mg/mouse i.p. at days 8 and 9; versus scrambled control compound. As for the experimental part: EAE was induced in female SJL/J mice (8 to 14 weeks old) by immunization on day zero with 50 μg of a compound corresponding to positions 139-151 of PLP emulsified in a 1:1 mixture of PBS and complete Freund's adjuvant (CFA). Each mouse was injected with 0.2 ml of the adjuvant emulsion subcutaneously (s.c.) at two sites in the hind flank. All mice received 10^7 killed Bordetella pertussis units in 100 μl were injected intravenously 24 to 72 hours later.
Mice were observed daily, beginning at day 8 for clinical signs of EAE, and disease was scored on a scale of 0-5 as: 0=no disease; 1=floppy tail; 2=moderate hind limb weakness; 3=paraparesis; 4 =paraplegis with moderate forelimb weakness; 5 =qualdriplegis or premoribund state.
The inhibitor compound, Compound ID No. 896.52, N-phenylacetyl-Leu-Asp-Phe-D-Pro-NH2 was administered intraperitoneally at 1 mg/mouse in 0.2 ml of incomplete Freund's adjuvant at days 8 and 9. A compound having a scrambled sequence [N-phenylacetyl-Asp-Leu-Phe-D-Pro-NH2 ] was similarly administered to serve as a control.
Summed or averaged scores for clinical signs were plotted vs. time. The area under the resulting curves was calculated between day 8 and day 35 to calculate percentage inhibition of EAE by an inhibitor compound. The percent inhibition was calculated as follows:
%Inhibition=100-(Area of inhibitor compound+control area)×100

Another assay concerns asthmatic sheep. Briefly: Treatment of asthmatic sheep (Ascaris suum antigen). Format: in vivo. As for the experimental part:
Six asthmatic sheep were treated in a double blind cross-over study. […] This study was carried out generally as described in Abraham et al., J. Clin. Invest., 93:776-787 (1994).
The inhibitor compound used here was Compound ID No. 896.52, N-phenylacetyl-Leu-Asp-Phe-D-Pro-NH2, with a control compound that comprised the previously described compound having the same residues in a scrambled sequence. The vehicle for the nebulized compounds was phosphate-buffered saline. The compounds were administered at a dose of 1 mg/kg each, twice a day for three days prior to challenge, as well as 0.5 hours prior to and four hours post challenge on day 4. Because this was a crossover study, each animal received one or the other treatment, followed by a rest and then the other treatment. Each animal therefore served as its own control.
Post challenge airway responsiveness was also assayed. Here, specific lung resistance, SRL, returned to baseline values 24 hours after challenge, however, the sheep were hyperresponsive to inhaled carbachol at that time.

[4] abbreviates: 100 mg/kg nebulizer, late (24 hours).

On to `CC(C)C[C@H](NC(=O)Cc1ccccc1)C(=O)N[C@@H](CC(=O)O)C(=O)N[C@@H](Cc1ccccc1)C(=O)N1CCN(CC(=O)O)CC1` [1111.06], for which, at VLA-4 [1], the “Relative Potency” value turned out to be 2600. For the same molecule, the “Percent Inhibition of post-challenge swelling” value (“Percent Inhibition” below) in assay [2] came out at 30%.
With `CC(C)C[C@H](NC(=O)Cc1ccccc1)C(=O)N[C@@H](CC(=O)O)C(=O)N[C@@H](Cc1ccccc1)C(=O)N1CCOCC1` [1051.01] (PhAc-Leu-Asp-Phe-Morpholide), on VLA-4 [1], the “Relative Potency” value was 709. In addition, the “% Reduction, RL, Early phase” value in the assay with asthmatic rabbits (100 mg/kg nebulizer, early (2-4 hours)) stood at 80.1%. Besides, the “% Reduction, Cdyn, Early phase” value in the assay on asthmatic rabbits (100 mg/kg nebulizer, early (2-4 hours), versus challenged controls) is 94.4%. In the assay with asthmatic rabbits (setting [4]), the “% Reduction, Cdyn, Late phase” value is recorded as 86.6% and the “% Reduction, RL, Late phase” value is listed as 82.6%. Further, the “reduction in eosinophils (BAL count)” value in the assay with asthmatic rabbits (after 24 hours, versus untreated, challenged animals) came to 88.1%. In addition, in the assay with asthmatic rabbits (six hours after challenge), the “dynamic compliance Cdyn over six hours (FIG. 4A)” value is reported as “stayed at about the initial value”; the “lung resistance RL over six hours (FIG. 4B)” value was “remained between the initial value and about 200% of that value”.
Turning to Leu-Asp-Val [LDV], the “affinity of VLA-4 binding relative to native CS-1 25-mer” value on VLA-4 [3] is recorded as “at least two orders of magnitude lower affinity”.
With `CC(C)C[C@H](NC(=O)Cc1ccccc1)C(=O)N[C@@H](CC(=O)O)C(=O)N[C@@H](Cc1ccccc1)C(=O)N1CCC(O)CC1` [1070.02], the “Relative Potency” value at VLA-4 [1] is 604. Also, the “Percent Inhibition” value in assay [2] was 29%.
Consider `CC[C@H](C)[C@H](NC(=O)[C@H](CCC(=O)O)NC(=O)[C@@H]1CCCN1C(=O)CN)C(=O)N[C@@H](CC(C)C)C(=O)N[C@@H](CC(=O)O)C(=O)N[C@H](C(=O)N1CCC[C@H]1C(=O)N[C@@H](CO)C(=O)N[C@H](C(=O)O)[C@@H](C)O)C(C)C` [Compound ID No. 872.01, GPEILDVPST] (H-GPEILDVPST-OH), for which the “inhibition of Jurkat cell adhesion to RA synovial sections” value in the assay on Jurkat cells is recorded as “could be inhibited”. Further, in the assay on immune T cells, the “abrogation of transferred immune response” value was “could abrogate a transferred immune response”.
Turning to `CC(C)C[C@H](NC(=O)Cc1ccccc1)C(=O)N[C@@H](CC(=O)O)C(=O)N[C@@H](Cc1ccccc1)C(=O)N1CCC[C@@H]1C(N)=O` [896.52] (PhAc-LDF[dP]-NH2), the “swelling at challenge site (initial study, FIG. 5)” value in assay [2] (6 mg/kg/day s.c. by implanted pump for 24 hours, versus saline) was “reduced this type of CS-1/VLA-4-mediated immunoinflammation”. The “Percent Inhibition” value in assay [2] came to 36%. Besides, the “clinical signs of EAE (FIG. 6)” value with EAE in SJL/J mice is listed as “marked improvement in clinical signs”. In the assay with asthmatic sheep (24 hours after challenge, pre-challenge about 20-23 BU), the “PC400, carbachol dosage to increase SRL 4-fold” value is on record as “about 27 BU”. For the same molecule, the “specific lung resistance SRL after challenge (FIG. 7)” value in the assay with asthmatic sheep (nebulized 1 mg/kg twice a day, versus control compound) is “less of a change from baseline specific lung resistance (SRL)”.
